# Test results taken from paper PMC9516332 (Frontiers in Oncology, 2022).
# Columns and labels:
# [1] = test system: AP-1060 (ETV6-NTRK3); assay: Cell viability assay; details: read-out: IC50 in cell proliferation assay
# [2] = biological target: T1, panel of 255 wild-type kinases (Homo sapiens, UniProt P15735); details: kinase PHKG2; 1 µmol/L single concentration; ref DOI: 10.1158/1535-7163.MCT-18-0877; cited from earlier work
# T1 sequence (P15735 1-406): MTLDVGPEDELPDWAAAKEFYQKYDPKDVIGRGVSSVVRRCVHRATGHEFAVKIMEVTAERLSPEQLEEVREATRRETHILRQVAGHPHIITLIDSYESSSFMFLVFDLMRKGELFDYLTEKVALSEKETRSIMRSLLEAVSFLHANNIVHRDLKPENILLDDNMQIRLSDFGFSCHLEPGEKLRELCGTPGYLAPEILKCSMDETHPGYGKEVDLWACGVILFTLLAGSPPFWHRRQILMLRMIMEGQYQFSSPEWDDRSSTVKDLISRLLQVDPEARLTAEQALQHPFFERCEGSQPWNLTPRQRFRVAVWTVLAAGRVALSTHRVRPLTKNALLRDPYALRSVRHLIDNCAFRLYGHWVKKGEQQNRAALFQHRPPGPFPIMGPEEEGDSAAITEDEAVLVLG
# [3] = test system: 134 cancer cell lines; assay: Cell viability assay (ATPlite, 72 hours), IC50 on cancer cell line panel; details: 134 cell line panel
smiles,measurement,setting,value
C=CC(=O)Nc1cc(Nc2nccc(-c3cn(C)c4ccccc34)n2)c(OC)cc1N(C)CCN(C)C [osimertinib],IC50,[1],1940 nM
same,"%-inhibition at 1 µmol/L, PHKG2",[2],11%
same,lower IC50 of the most sensitive cell line compared to the panel average,[3],around 300 fold
